In patent US20170209445A1, “KINASE INHIBITORS” (Respivert Limited, priority 2014, published 2017):

Experiments:
Jurkat cells = experiment: Cell cytotoxicity assay (Jurkat cell viability); type: cell-based, human; details: 24 hours
Experimental: 1×10^5 Jurkat cells (immortalised human T lymphocytes) are added to the appropriate number of wells of a 96 well plate in 100 μL of media (RPMI supplemented with 10% foetal bovine serum). 1 μL of DMSO control (final concentration 1.0% v/v) or test compound (final concentration 20, 5 or 1 μg/mL) is added to the wells and incubated at 37° C., 5% CO2. After 24 hours, the plate is centrifuged at 1200 rpm for 3 minutes and the supernatant discarded. Cells are then resuspended in 150 μL (final concentration 7.5 μg/mL) of propidium iodide (PI) in PBS and incubated at 37° C., 5% CO2 for 15 minutes. After 15 minutes, cells are analysed by flow cytometry (BD accuri) using the FL3 window. The % viability is calculated as the % of cells that are PI negative in the test wells normalised to the DMSO control.

PBMCs = experiment: LPS-induced IL-8 release in PBMC cells; type: cell-based; details: Homo sapiens, LPS-stimulated PBMCs, read-out: IC50 Values for Inhibition of Cytokine Release PBMCs IL-8
Experimental: Peripheral blood mononuclear cells (PBMCs) from healthy subjects are separated from whole blood using a density gradient (Lymphoprep, Axis-Shield Healthcare). The PBMCs are seeded in 96 well plates and treated with compounds at the desired concentration for 2 hours before addition of 1 ng/mL LPS (Escherichia Coli 0111:B4 from Sigma Aldrich) for 24 hours under normal tissue culture conditions (37° C., 5% CO2). The supernatant is harvested for determination of IL-8 and TNFα concentrations by sandwich ELISA (Duo-set, R&D systems) and read on the fluorescence microplate reader (Varioskan® Flash, ThermoFisher Scientific).

Row | Structure (SMILES) | % Viability at 1 μg/mL (Jurkat cells) [%] | % Viability at 5 μg/mL (Jurkat cells) [%] | % Viability at 20 μg/mL (Jurkat cells) [%] | IC50 (PBMCs) [nM]
1 | C#Cc1cc(Nc2ncc3cc(-c4cc(C(=O)Nc5cc(C(C)(C)C)cc(NS(C)(=O)=O)c5OC)ccc4C)ccc3n2)cc(C(=O)NCCOCCOCCOC)c1 [14(g), N-(5-(tert-Butyl)-2-methoxy-3-(methylsulfonamido)phenyl)-3-(2-((3-ethynyl-5-((2-(2-(2-methoxyethoxy)ethoxy)ethyl)carbamoyl)phenyl)amino)quinazolin-6-yl)-4-methylbenzamide] | 110.1 | 75.5 | 65.4 | 17.3
2 | COc1c(NC(=O)c2ccc(C)c(-c3ccc4nc(Nc5cccc(CP(C)(C)=O)c5)ncc4c3)c2)cc(C(C)(C)C)cc1NS(C)(=O)=O [14(i), N-(5-(tert-Butyl)-2-methoxy-3-(methylsulfonamido)phenyl)-3-(2-((3-((dimethylphosphoryl)methyl)phenyl)amino)quinazolin-6-yl)-4-methylbenzamide] | 69.8 | 8.4 | 2.1 | 6.9
3 | COCCOCCOCCOc1cc(F)cc(Nc2ncc3cc(-c4cc(C(=O)Nc5cc(C(C)(C)C)cc(NS(C)(=O)=O)c5OC)ccc4C)ccc3n2)c1 [14(l), N-(5-(tert-Butyl)-2-methoxy-3-(methylsulfonamido)phenyl)-3-(2-((3-fluoro-5-(2-(2-(2-methoxyethoxy)ethoxy)ethoxy)phenyl)amino)quinazolin-6-yl)-4-methylbenzamide] | – | – | – | 16.6
4 | C#Cc1cc(Nc2ncc3cc(-c4cc(C(=O)Nc5cc(C(C)(C)C)cc(NS(C)(=O)=O)c5OC)ccc4C)ccc3n2)cc(C(=O)NCCOCCOC)c1 [14(m), N-(5-(tert-Butyl)-2-methoxy-3-(methylsulfonamido)phenyl)-3-(2-((3-ethynyl-5-((2-(2-methoxyethoxy)ethyl)carbamoyl)phenyl)amino)quinazolin-6-yl)-4-methylbenzamide] | – | – | – | 10.4
5 | C#Cc1cc(Nc2ncc3cc(-c4cc(C(=O)Nc5cc(C(C)(C)C)cc(NS(C)(=O)=O)c5OC)ccc4C)ccc3n2)cc(C(=O)NCCOC)c1 [14(n), N-(5-(tert-Butyl)-2-methoxy-3-(methylsulfonamido)phenyl)-3-(2-((3-ethynyl-5-((2-methoxyethyl)carbamoyl)phenyl)amino)quinazolin-6-yl)-4-methylbenzamide] | – | – | – | 11
6 | COc1cc(Nc2ncc3cc(-c4cc(C(=O)Nc5cc(C(C)(C)C)cc(NS(C)(=O)=O)c5OC)ccc4C)ccc3n2)cc(C(=O)O)c1 [14(o), 3-((6-(5-((5-(tert-Butyl)-2-methoxy-3-(methylsulfonamido)phenyl)carbamoyl)-2-methylphenyl)quinazolin-2-yl)amino)-5-methoxybenzoic acid] | – | – | – | 28.4
7 | COCCOCCOCCNC(=O)c1ccc(Nc2ncc3cc(-c4cc(C(=O)Nc5cc(C(C)(C)C)cc(NS(C)(=O)=O)c5OC)ccc4C)ccc3n2)cc1OC [14(p), 4-((6-(5-((5-(tert-Butyl)-2-methoxy-3-(methylsulfonamido)phenyl)carbamoyl)-2-methylphenyl)quinazolin-2-yl)amino)-2-methoxy-N-(2-(2-(2-methoxyethoxy)ethoxy)ethyl)benzamide] | – | – | – | 7.5
8 | COc1c(NC(=O)c2ccc(C)c(-c3ccc4nc(Nc5cccc(N=S(C)(C)=O)c5)ncc4c3)c2)cc(C(C)(C)C)cc1NS(C)(=O)=O [14(q), N-(5-(tert-Butyl)-2-methoxy-3-(methylsulfonamido)phenyl)-3-(2-((3-((dimethyl(oxo)-I6-sulfanylidene)amino)phenyl)amino)quinazolin-6-yl)-4-methylbenzamide] | – | – | – | 6.1
9 | COCCOCCOCCOc1cc(Nc2ncc3cc(-c4cc(C(=O)Nc5cc(C(C)(C)C)cc(NS(C)(=O)=O)c5OC)ccc4C)ccc3n2)cc(OC(F)(F)F)c1 [14(r), N-(5-(tert-Butyl)-2-methoxy-3-(methylsulfonamido)phenyl)-3-(2-((3-(2-(2-(2-methoxy-ethoxy)ethoxy)ethoxy)-5-(trifluoromethoxy)phenyl)amino)quinazolin-6-yl)-4-methylbenzamide] | – | – | – | 49.1
10 | COCCOCCOCCOc1cc(Nc2ncc3cc(-c4cc(C(=O)Nc5cc(C(C)(C)C)cc(NS(C)(=O)=O)c5OC)ccc4C)ccc3n2)cc(C(F)(F)F)c1 [14(s), N-(5-(tert-Butyl)-2-methoxy-3-(methylsulfonamido)phenyl)-3-(2-((3-(2-(2-(2-methoxyethoxy)ethoxy)ethoxy)-5-(trifluoromethyl)phenyl)amino)quinazolin-6-yl)-4-methylbenzamide] | – | – | – | 35.6
11 | COc1c(NC(=O)c2ccc(C)c(-c3ccc4nc(Nc5ccc(S(C)(=N)=O)cc5)ncc4c3)c2)cc(C(C)(C)C)cc1NS(C)(=O)=O (centres unmarked) [14(t), N-(5-(tert-Butyl)-2-methoxy-3-(methylsulfonamido)phenyl)-4-methyl-3-(2-((4-(S-methylsulfonimidoyl)phenyl)amino)quinazolin-6-yl)benzamide] | – | – | – | 67.6
12 | COc1c(NC(=O)c2ccc(C)c(-c3ccc4nc(Nc5cc(C(=O)NCCN6CCOCC6)cc(C(F)(F)F)c5)ncc4c3)c2)cc(C(C)(C)C)cc1NS(C)(=O)=O [14(u), N-(5-(tert-Butyl)-2-methoxy-3-(methylsulfonamido)phenyl)-4-methyl-3-(2-((3-((2-morpholinoethyl)carbamoyl)-5-(trifluoromethyl)phenyl)amino)quinazolin-6-yl)benzamide] | – | – | – | 20.2
13 | COc1cc(Nc2ncc3cc(-c4cc(C(=O)Nc5cc(C(C)(C)C)cc(NS(C)(=O)=O)c5OC)ccc4C)ccc3n2)ccc1C(=O)NCCOCCOCCO [14(v), 4-((6-(5-((5-(tert-Butyl)-2-methoxy-3-(methylsulfonamido)phenyl)carbamoyl)-2-methylphenyl)quinazolin-2-yl)amino)-N-(2-(2-(2-hydroxyethoxy)ethoxy)ethyl)-2-methoxybenzamide] | – | – | – | 4.4
14 | COCCOCCNC(=O)c1ccc(Nc2ncc3cc(-c4cc(C(=O)Nc5cc(C(C)(C)C)cc(NS(C)(=O)=O)c5OC)ccc4C)ccc3n2)cc1OC [14(w), 4-((6-(5-((5-(tert-Butyl)-2-methoxy-3-(methylsulfonamido)phenyl)carbamoyl)-2-methylphenyl)quinazolin-2-yl)amino)-2-methoxy-N-(2-(2-methoxyethoxy)ethyl)benzamide] | – | – | – | 8.4
15 | COc1cc(Nc2ncc3cc(-c4cc(C(=O)Nc5cc(C(C)(C)C)cc(NS(C)(=O)=O)c5OC)ccc4C)ccc3n2)ccc1C(=O)NCC(CO)(CO)CO [14(x), 4-((6-(5-((5-(tert-Butyl)-2-methoxy-3-(methylsulfonamido)phenyl)carbamoyl)-2-methylphenyl)quinazolin-2-yl)amino)-N-(3-hydroxy-2,2-bis(hydroxymethyl)propyl)-2-methoxybenzamide] | – | – | – | 7.7
16 | COc1cc(Nc2ncc3cc(-c4cc(C(=O)Nc5cc(C(C)(C)C)cc(NS(C)(=O)=O)c5OC)ccc4C)ccc3n2)ccc1C(=O)NCCN1CCCOCC1 [14(y), N-(2-(1,4-Oxazepan-4-yl)ethyl)-4-((6-(5-((5-(tert-butyl)-2-methoxy-3-(methylsulfonamido)-phenyl)carbamoyl)-2-methylphenyl)quinazolin-2-yl)amino)-2-methoxybenzamide] | – | – | – | 4.6
17 | COc1cc(Nc2ncc3cc(-c4cc(C(=O)Nc5cc(C(C)(C)C)cc(NS(C)(=O)=O)c5OC)ccc4C)ccc3n2)ccc1C(=O)NCCN1CCN(C)CC1 [14(z), 4-((6-(5-((5-(tert-Butyl)-2-methoxy-3-(methylsulfonamido)phenyl)carbamoyl)-2-methyl-phenyl)quinazolin-2-yl)amino)-2-methoxy-N-(2-(4-methylpiperazin-1-yl)ethyl)benzamide] | – | – | – | 6
18 | COc1c(NC(=O)c2ccc(C)c(-c3ccc4nc(Nc5ccc(N=S(C)(C)=O)cc5)ncc4c3)c2)cc(C(C)(C)C)cc1NS(C)(=O)=O [Example 7, N-(5-(tert-Butyl)-2-methoxy-3-(methylsulfonamido)phenyl)-3-(2-((4-((dimethyl(oxo)-I6-sulfanylidene)amino)phenyl)amino)quinazolin-6-yl)-4-methylbenzamide] | 79.0 | 54.7 | 49.7 | 3.8
19 | COc1cc(Nc2ncc3cc(-c4cc(C(=O)Nc5cc(C(C)(C)C)cc(NS(C)(=O)=O)c5OC)ccc4C)ccc3n2)ccc1C(=O)NCCCN1CC[S+]([O-])CC1 [Example 11, 4-((6-(5-((5-(tert-Butyl)-2-methoxy-3-(methylsulfonamido)phenyl)carbamoyl)-2-methylphenyl)-quinazolin-2-yl)amino)-2-methoxy-N-(3-(1-oxidothiomorpholino)propyl)benzamide] | – | – | – | 7.6
20 | COc1cc(Nc2ncc3cc(-c4cc(C(=O)Nc5cc(C(C)(C)C)cc(NS(C)(=O)=O)c5OC)ccc4C)ccc3n2)ccc1C(=O)NCCN1CCN(CCO)CC1 [Example 13] | – | – | – | 6.7
21 | COCC(=O)Nc1cc(Oc2ccc(NC(=O)Nc3cc(C(C)(C)C)nn3-c3ccc(C)cc3)c3ccccc23)ccn1 [Reference Compound A, N-(4-(4-(3-(3-tert-butyl-1-p-tolyl-1H-pyrazol-5-yl)ureido)naphthalen-1-yloxy)pyridin-2-yl)-2-methoxyacetamide, reference compound] | 23.5 | 18.9 | 17.3 | –
